Measurements taken from patent US8163766B2, “Beta-secretase modulators and methods of use” (Amgen Inc., priority 2005, dated 2012).

What follows are compounds tested on Aβ 40 in conditioned media of cells stably expressing Amyloid Precursor Protein (APP) (assay: BACE Cell-Based Assay (Aβ40 in conditioned medium, sandwich ELISA)). Details: 24 hours of incubation with the test compounds, Aβ 40 by sandwich ELISA, read-out: IC50 values in the cell-based assay (inhibition of Aβ 40).
Outline: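 IC50 derived from Aβ40 reduction in supernatants, quantified by europium time-resolved fluorescence ELISA with pAb40/biotin-6E10 antibodies incubated at 4°C. Cells stably expressing APP received compound for 24 h, ten concentrations from 100 μM or 10 μM top, final DMSO 0.1%.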

IC50, ≤ 5 µM:
CCc1cc2c(s1)CC(C)(C)C[C@@H]2NC[C@@H](O)[C@H](Cc1ccccc1)NC(=O)[C@H]1CC(=O)N(C2CCC2)C1 [Example 523, (3S)-1-cyclobutyl-N-((1S,2R)-3-(((4S)-2-ethyl-6,6-dimethyl-4,5,6,7-tetrahydro-1-benzothien-4-yl)amino)-2-hydroxy-1-(phenylmethyl)propyl)-5-oxo-3-pyrrolidinecarboxamide]
O=C(N[C@@H](Cc1ccccc1)[C@H](O)CN[C@H]1CC2(CCC2)Oc2ccc(N3CCOCC3)cc21)[C@H]1CC(=O)N(C2CCC2)C1 [Example 524, (3S)-1-cyclobutyl-N-((1S,2R)-2-hydroxy-3-(((4S)-6-(4-morpholinyl)-3,4-dihydrospiro[chromene-2,1′-cyclobutan]-4-yl)amino)-1-(phenylmethyl)propyl)-5-oxo-3-pyrrolidinecarboxamide]
CCc1ccc2c(c1)[C@@H](NC[C@@H](O)[C@H](Cc1cscn1)NC(=O)c1cc(-c3ccccn3)c(=O)n(C3CCCC3)c1)CC1(CCC1)O2 [Example 525, 1′-cyclopentyl-N-((1S,2R)-3-(((4S)-6-ethyl-3,4-dihydrospiro[chromene-2,1′-cyclobutan]-4-yl)amino)-2-hydroxy-1-(1,3-thiazol-4-ylmethyl)propyl)-2′-oxo-1′,2′-dihydro-2,3′-bipyridine-5′-carboxamide]
O=C(N[C@@H](Cc1ccccc1)[C@H](O)CN[C@H]1CC2(CCC2)Oc2ccc(N3CCOCC3)cc21)[C@@H]1CN(C(=O)C2CCOCC2)CCO1 [Example 526, (2S)-N-((1S,2R)-2-hydroxy-3-(((4S)-6-(4-morpholinyl)-3,4-dihydrospiro[chromene-2,1′-cyclobutan]-4-yl)amino)-1-(phenylmethyl)propyl)-4-(tetrahydro-2H-pyran-4-ylcarbonyl)-2-morpholinecarboxamide]
CCc1ccc2c(c1)[C@@H](NC[C@@H](O)[C@H](Cc1ccccc1)NC(=O)[C@@H]1C[C@@H](c3ccccc3)CN(C(=O)c3cccc(C)c3)C1)CC1(CCC1)O2 [Example 527, (3R,5S)-N-((1S,2R)-3-(((4S)-6-ethyl-3,4-dihydrospiro[chromene-2,1′-cyclobutan]-4-yl)amino)-2-hydroxy-1-(phenylmethyl)propyl)-1-((3-methylphenyl)carbonyl)-5-phenyl-3-piperidinecarboxamide]
O=C1CC[C@@H](C(=O)N[C@@H](Cc2ccccc2)[C@H](O)CN[C@H]2CC3(CCC3)Oc3ccc(N4CCOCC4)cc32)O1 [Example 528, (2S)-N-((1S,2R)-2-hydroxy-3-(((4S)-6-(4-morpholinyl)-3,4-dihydrospiro[chromene-2,1′-cyclobutan]-4-yl)amino)-1-(phenylmethyl)propyl)-5-oxotetrahydro-2-furancarboxamide]
O=C1CC[C@H](C(=O)N[C@@H](Cc2ccccc2)[C@H](O)CN[C@H]2CC3(CCC3)Oc3ccc(N4CCOCC4)cc32)O1 [Example 529, (2R)-N-((1S,2R)-2-hydroxy-3-(((4S)-6-(4-morpholinyl)-3,4-dihydrospiro[chromene-2,1′-cyclobutan]-4-yl)amino)-1-(phenylmethyl)propyl)-5-oxotetrahydro-2-furancarboxamide]
